Assay results as given in patent publication EP0302760A2, “Antiviral therapy for hepatitis B using 2',3'-dideoxynucleosides” (priority 1987, dated 1989).
Converted amounts (≈) assume the structure as drawn. Like-named read-outs stand apart in the source and are kept apart here.

What was measured:
[1] = cited from earlier work
[2] = tested on: duck hepatitis B virus (DHBV); test: Dot blot hybridization of DHBV DNA from DHBV-infected primary duck hepatocyte cultures; type: cell-based; settings: for inhibition at 1 µg/mL / inhibition at 10 µg/mL / IC50: Duck hepatitis B virus, Hepatocyte; for inhibition at 1 µg/mL / inhibition at 10 µg/mL: 480 h; for inhibition at 1 µg/mL: read-out: PERCENTAGE INHIBITION, 1 µg/ml; for inhibition at 10 µg/mL: read-out: PERCENTAGE INHIBITION, 10 µg/ml; for IC50: DHBV-infected hepatocytes, drug from day 2, DNA extracted on day sixteen, radioactivity of dots counted, read-out: concentrations of nucleoside analog required to inhibit the virus replication by 50% (ID₅₀)
Experimental: Dose response curves for the purine 2′,3′-dideoxynucleosides and pyrimidine 2′,3′-dideoxynucleosides have been established by using the duck hepatitis B virus (DHBV) infected hepatocyte system. The DHBV-infected hepatocyte cultures were established as described in Example 1. Dideoxynucleoside analogs were added to the media of the hepatocyte cultures on day 2 and maintained in culture with media changes every two days. On day sixteen the DNA was extracted from the cells and the dot blots performed using the ³²P-labelled DHBV probe. The radioactivity of each "dot" was quantitated by cutting out the "dot" and counting the radioactivity. The abbreviations used in Figure 1, setting out the dose response curves, are as follows: ddA = 2′,3′-dideoxyadenosine; ddG = 2′,3′-dideoxyguanosine; ddDAPR = 2,6-diaminopurine 2′,3′-dideoxyriboside; ddI = 2′,3′-dideoxyinosine; ddT = 2′,3′-dideoxythymidine; ddC = 2′,3′-dideoxycytidine.
Newborn ducklings are infected with DHBV. After 5 to 7 days post-infection, samples of blood are taken from the ducklings and examined for DHBV DNA using dot hybridization with a specific DNA probe [Mason et al, Proc. Natl. Acad. Sci. USA 79, 3997-4001 (1982)]. The livers are removed from dot-blot positive ducklings and used to produce primary hepatocyte cultures infected with DHBV as previously described. (Tuttleman et al, J. of Virology, 58, 17-25). After 2 days in culture, antiviral agents are added to the culture media. The media are changed every 2 days and at selected times, the cells are removed and the total DNA extracted.
The DNA is spotted on nitrocellulose paper and probed with the ³²P-labelled DHBV DNA probe in accordance with the following procedure. The DNA from DHBV-infected hepatocytes was extracted and spotted onto a nitrocellular filter. The above described ³²P-nick translated - DHBV DNA (pDH-010=DHBV) probe was used. The DNA was extracted from 6-cm cell culture dishes at various times post-plating. In the VC group, cells were harvested at 2, 6, 8, 10, 14, 18 and 20 days. Duplicate samples were spotted for days 14, 18 and 20. In drug-treated groups, cells were harvested on days 8, 14 and 20. In Figure 1, this is from left to right. Drugs were added to the culture at 2 days post-plating and maintained throughout media changes every 2 days. The concentrations (µg/ml) used are indicated in Figure 1 for 2′,3′-dideoxythymidine (ddT), 2′,3′-dideoxycytidine (ddC), adenine arabinoside (ara A), 2′,3′-dideoxyadenosine (ddA) and 2′,3′-dideoxyguanosine (ddG). The total intracellular DNA was extracted from cells using the standard phenol extraction method. The cells in a 6-cm diameter Petri dish (approximately 5 x 10⁶ cells) were lysed in a lysis buffer containing 0.2% SDS, 150 mM Tris-HCl pH 8.0, 10 mM EDTA, 5 mM EGTA, and 150 mM NaCl. The cell lysate was digested with 0.5 mg/ml of pronase E (available from Sigma) at 37°C for 2 hours and deproteinized by extraction with an equal volume of phenol saturated with 20 mM Tris HCl, pH 7.5, 0.5 mM EDTA and 0.1% 8-hydroxyquinoline. Concentrated ammonium acetate [pH 7.0 (2.5 M)] was added to the aqueous phase to yield a 0.25 M ammonium acetate solution and the nucleic acids were precipitated with 2 volumes of 100% ethanol. The pellet of nucleic acid was washed with ethanol and dried. The DNA was dissolved in a solution containing 12.5 mM Tris HCl, pH 7.5, 10 mM EDTA, 30% glycerol and 0.01% bromophenol blue. One twelfth of the DNA sample was spotted onto the nitrocellulose for dot-blot analysis. ddA, ddG, ddC and ddT were purchased from Pharmacia. 2,6-Diaminopurine 2′,3′-dideoxyriboside [or 2,6-diamino-9-2,3-dideoxy-β-D-glycero-pentofuranosyl)purine] (ddDAPR) can be prepared by a procedure recently used for efficient conversion of adenosine into its ddAdo derivative (Robins et al, Tetrahedron Lett., 25, […], 1984; Hansske and Robins, Tetrahedron Lett., 26, 4295-4298, 1985).

DHBV DNA = test: Southern blot analysis of intracellular viral DNA from DHBV-infected hepatocytes; type: cell-based, duck hepatitis B virus (DHBV); settings: for change in DHBV DNA forms in treated hepatocytes: from day 14 to day 20; for inhibition at 1 µg/mL: Duck hepatitis B virus, Hepatocyte, similar experiments to the Southern blot of Example 2
Experimental: Southern blot analysis of intracellular viral DNA was separated on a 1.5% agarose gel. The DNA was extracted from DHBV-infected hepatocytes in a 6-cm dish and one fifth of the total DNA was applied onto each lane. […] Drug-treated groups were harvested 14 and 20 days post-plating. The DNA samples from drug-treated hepatocytes were ddA (10 µg/ml), day 14 (lane 5) and day 20 (lane 6), ddA (1 µg/ml), day 14 (lane 7) and day 20 (lane 8), ddG (10 µg/ml), day 14 (lane 9) and day 20 (lane 10), ddG (1 µg/ml), day 14 (lane 11) and day 20 (lane 12). The size markers (Kilobases) were obtained from HindIII digested bacteriophage λ DNA.

extracellular DHBV = test: Southern blot analysis of extracellular virion DNA from culture media of DHBV-infected hepatocytes; type: cell-based, duck hepatitis B virus (DHBV); settings: 1 µg/ml; culture media pooled from day 16 to day 20
From the text: Southern blot analysis of the extracellular virion DNA was separated on a 1.5% agarose gel. Culture media were pooled from the day 16 to day 20 post-plating. Pelleted virions were digested with pronase and the DNA from the entire sample was applied to each lane. […] RC in Figure 3 indicated relaxed circular DNA.

duck hepatocytes = test: Toxicity (cell viability) in duck hepatocytes; type: cell-based; settings: 100 µg/ml over a 10 day exposure
Experimental: (§1) The toxicity of the purine 2′,3′-dideoxynucleosides has been tested in duck hepatocytes and monkey kidney cells (Vero) to reveal that decreased cell viability with ddA or ddG at 100 µg/ml over a 10 day exposure was not detected. As is known, several lymphocyte cell lines have been examined before for viability and function in the presence of 2′,3′-dideoxynucleosides. These cell lines have not shown decreased viability and function in the presence of 2′,3′-dideoxynucleosides.

[3] = tested on: monkey kidney cells (Vero); test: Toxicity (cell viability) in monkey kidney cells; type: cell-based; settings: 100 µg/ml over a 10 day exposure
Experimental: as §1

DHBV = test: In vivo treatment of Pekin ducks persistently infected with DHBV, dot blot of sera; settings: 10 mg/kg twice daily by intramuscular injection, four ducks
Experimental: Additional tests were conducted to verify the activity in vivo. Four Pekin ducks with proven persistent infection with DHBV were treated with 2,6-diaminopurine 2′,3′-dideoxyriboside (ddDAPR). The animals received 10 mg/kg twice daily by intramuscular injection for two weeks. […] All five animals had evidence of persistent infection with DHBV. […] The untreated duck (number 5) was not bled at this time. […] The control animal (number 5) remained strongly positive after 2 weeks (row c, column 5).

[4] = Conversion of ddDAPR to ddG in whole blood; type: in vitro ADME; settings: whole blood from a duck, in 5 minutes; read-out: ddDAPR metabolized to ddG
From the text: We have also confirmed that ddDAPR is rapidly metabolized to ddG. This has been done using whole blood from a duck and measuring the rate of conversion of ddDAPR to ddG.

adenosine deaminase = adenosine deaminase (Homo sapiens, UniProt P00813); settings: Balzarini et al 1987; cited from earlier work
hepatitis B virus = settings: cited from earlier work
[5] = densitometry scans of the dot hybridization at 20 days

Sequence of adenosine deaminase (P00813 whole entry): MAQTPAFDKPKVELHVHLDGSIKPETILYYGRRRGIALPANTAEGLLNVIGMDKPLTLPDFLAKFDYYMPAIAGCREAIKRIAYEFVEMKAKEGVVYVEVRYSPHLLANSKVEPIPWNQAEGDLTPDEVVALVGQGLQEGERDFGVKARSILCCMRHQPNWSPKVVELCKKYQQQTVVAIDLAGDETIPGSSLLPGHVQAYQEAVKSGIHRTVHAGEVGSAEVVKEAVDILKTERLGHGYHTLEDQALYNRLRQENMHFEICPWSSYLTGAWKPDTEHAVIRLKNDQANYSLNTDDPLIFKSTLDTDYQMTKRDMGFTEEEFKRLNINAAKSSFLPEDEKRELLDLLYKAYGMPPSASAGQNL

Compound: Cc1cn([C@H]2C[C@H](N=[N+]=[N-])[C@@H](CO)O2)c(=O)[nH]c1=O [AZT, 3′-azido-3′deoxythymidine]
- peak plasma levels ([1]; after infusions of 1 mg/kg): 1 µg/mL
- peak plasma levels ([1]; after oral administration of 2 mg/kg): 1 µg/mL

Compound: Nc1ncnc2c1ncn2[C@H]1CC[C@@H](CO)O1 [ddA, 2′,3′-dideoxyadenosine]
- inhibition at 1 µg/mL [2, 5]: > 99%
- inhibition at 10 µg/mL [2, 5]: > 99%
- IC50 ([2]; Figure 1): 0.12 µg/mL (≈ 0.51 µM)
- inhibition of the synthesis of all forms of DHBV DNA (DHBV DNA; 1 µg/ml, RC, CCC and SS forms): very strong inhibition
- change in DHBV DNA forms in treated hepatocytes (DHBV DNA): small increase in RC DNA
- production of extracellular virus (extracellular DHBV): markedly decreased
- decreased cell viability (duck hepatocytes): not detected
- decreased cell viability [3]: not detected

Compound: OC[C@@H]1CC[C@H](n2cnc3c(O)ncnc32)O1 [ddI, 2′,3′-dideoxyinosine]
- inhibition at 1 µg/mL [2, 5]: 96%
- inhibition at 1 µg/mL (DHBV DNA; 1 µg/ml): > 95%

Compound: Nc1nc(N)c2ncn([C@H]3CC[C@@H](CO)O3)c2n1 [ddDAPR, 2,6-diaminopurine 2′,3′-dideoxyriboside]
- inhibition at 1 µg/mL [2, 5]: 98%
- IC50 ([2]; Figure 1): 0.07 µg/mL (≈ 0.28 µM)
- inhibition at 1 µg/mL (DHBV DNA; 1 µg/ml): > 95%
- clearance of the virus from the sera (DHBV; after 1 week): completely cleared the virus from their sera
- clearance of the virus from the sera (DHBV; after 2 weeks): cleared from the sera
- metabolised at 5 min [4]: > 95%
- deamination by adenosine deaminase (adenosine deaminase): deaminated by adenosine deaminase

Compound: 2′,3′-dideoxythymidine [ddT, reference compound]
- inhibition of DHBV replication ([2]; dose response curve, day sixteen, Figure 1): no inhibition
- production of extracellular virus (extracellular DHBV): fail to inhibit

Compound: Nc1nc2c(ncn2[C@H]2CC[C@@H](CO)O2)c(=O)[nH]1 [ddG, 2′,3′-dideoxyguanosine]
- inhibition at 1 µg/mL [2, 5]: > 99%
- inhibition at 10 µg/mL [2, 5]: > 99%
- IC50 ([2]; Figure 1): 0.07 µg/mL (≈ 0.279 µM)
- change in DHBV DNA forms in treated hepatocytes (DHBV DNA): decrease in all forms of DHBV DNA
- production of extracellular virus (extracellular DHBV): markedly decreased
- decreased cell viability (duck hepatocytes): not detected
- decreased cell viability [3]: not detected

Compound: Nc1ncnc2c1ncn2[C@@H]1O[C@H](CO)[C@@H](O)[C@@H]1O [araA, adenine arabinoside]
- inhibition at 10 µg/mL [2, 5]: ~63%
- toxicity associated with therapy (hepatitis B virus; chronic hepatitis B patients): bone marrow suppression, neuromuscular pain and neurotoxicity
- treated patients that show some benefit from therapy (hepatitis B virus; chronic hepatitis B, most open and controlled studies): about 30%

Compound: Nc1ccn([C@H]2CC[C@@H](CO)O2)c(=O)n1 [ddC, 2′,3′-dideoxycytidine, reference compound]
- PERCENTAGE INHIBITION ([2]; 1 µg/ml, densitometry scans of the dot hybridization at 20 days): little inhibitory effect
- inhibition at 1 µg/mL [2, 5]: 0%
- inhibition at 10 µg/mL [2, 5]: ~57%
- IC50 ([2]; Figure 1): 40 µg/mL (≈ 189 µM)
- production of extracellular virus (extracellular DHBV): fail to inhibit
